Where “and” joins values, the source holds several entries; their conditions need not be identical. Identical values can stand only once.
Legend:
KDM4B C694 (O94953) = molecular target: T1, KDM4B C694 (O94953) (Homo sapiens, UniProt O94953); experiment: Competitive isoTOP-ABPP, cell lysates; format: binding; conditions: for isoTOP-ABPP reactivity ratio, O94953_C694 / isoTOP-ABPP reactivity profile ratio, O94953_C694: 500 μm
T1 sequence (O94953 1-1096): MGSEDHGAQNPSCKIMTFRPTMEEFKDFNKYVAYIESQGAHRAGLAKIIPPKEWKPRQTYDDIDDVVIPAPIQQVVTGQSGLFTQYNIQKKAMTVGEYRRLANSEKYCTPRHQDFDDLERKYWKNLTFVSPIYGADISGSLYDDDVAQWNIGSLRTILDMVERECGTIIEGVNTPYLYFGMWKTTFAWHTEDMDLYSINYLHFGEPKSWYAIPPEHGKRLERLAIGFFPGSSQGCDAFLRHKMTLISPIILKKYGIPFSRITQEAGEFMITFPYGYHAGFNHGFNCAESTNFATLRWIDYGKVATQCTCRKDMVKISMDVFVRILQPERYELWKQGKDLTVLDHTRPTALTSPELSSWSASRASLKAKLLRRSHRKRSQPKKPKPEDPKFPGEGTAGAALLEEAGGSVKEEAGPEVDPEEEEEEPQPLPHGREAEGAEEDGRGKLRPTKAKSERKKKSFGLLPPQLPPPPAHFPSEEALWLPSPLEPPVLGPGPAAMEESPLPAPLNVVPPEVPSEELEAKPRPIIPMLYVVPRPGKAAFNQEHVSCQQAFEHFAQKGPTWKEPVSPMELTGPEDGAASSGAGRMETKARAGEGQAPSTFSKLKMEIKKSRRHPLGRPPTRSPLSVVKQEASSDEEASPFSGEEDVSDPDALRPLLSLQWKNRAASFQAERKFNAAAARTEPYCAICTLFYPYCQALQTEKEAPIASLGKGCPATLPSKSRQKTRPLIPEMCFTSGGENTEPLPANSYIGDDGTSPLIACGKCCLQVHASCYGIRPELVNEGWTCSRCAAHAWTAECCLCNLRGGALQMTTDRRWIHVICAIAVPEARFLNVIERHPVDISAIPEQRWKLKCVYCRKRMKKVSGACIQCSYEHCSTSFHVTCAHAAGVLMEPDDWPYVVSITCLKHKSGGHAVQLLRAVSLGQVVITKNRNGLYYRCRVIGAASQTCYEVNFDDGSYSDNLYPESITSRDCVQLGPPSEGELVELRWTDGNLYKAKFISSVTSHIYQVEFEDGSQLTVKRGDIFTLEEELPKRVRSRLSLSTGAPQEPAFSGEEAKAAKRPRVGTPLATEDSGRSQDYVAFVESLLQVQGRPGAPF

[1] = molecular target: T2, cysteines in MDA-MB-231 and Ramos cells (Homo sapiens, UniProt Q13418); experiment: Competitive isoTOP-ABPP in situ (fragment-treated cells); format: cell-based; conditions: 200 μM, insitu, 231
T2 sequence (Q13418 1-452): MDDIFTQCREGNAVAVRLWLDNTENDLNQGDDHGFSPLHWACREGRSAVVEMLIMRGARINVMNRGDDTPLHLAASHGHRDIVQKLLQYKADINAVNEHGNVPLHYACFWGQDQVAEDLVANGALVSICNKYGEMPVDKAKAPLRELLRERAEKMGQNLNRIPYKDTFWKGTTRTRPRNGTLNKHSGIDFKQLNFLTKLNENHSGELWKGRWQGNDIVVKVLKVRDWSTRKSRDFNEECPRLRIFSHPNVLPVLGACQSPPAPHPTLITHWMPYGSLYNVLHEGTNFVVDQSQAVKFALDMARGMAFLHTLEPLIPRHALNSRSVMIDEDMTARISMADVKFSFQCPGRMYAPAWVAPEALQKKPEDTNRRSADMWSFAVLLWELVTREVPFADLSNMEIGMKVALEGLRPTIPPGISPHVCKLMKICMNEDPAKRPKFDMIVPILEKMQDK

[2] = molecular target: cysteines in MDA-MB-231 and Ramos cells (Homo sapiens, UniProt Q9BXW7); experiment: as above; format: cell-based; conditions: 200 μM, insitu
Sequence of cysteines in MDA-MB-231 and Ramos cells (Homo sapiens, UniProt Q9BXW7) (Q9BXW7 24-423): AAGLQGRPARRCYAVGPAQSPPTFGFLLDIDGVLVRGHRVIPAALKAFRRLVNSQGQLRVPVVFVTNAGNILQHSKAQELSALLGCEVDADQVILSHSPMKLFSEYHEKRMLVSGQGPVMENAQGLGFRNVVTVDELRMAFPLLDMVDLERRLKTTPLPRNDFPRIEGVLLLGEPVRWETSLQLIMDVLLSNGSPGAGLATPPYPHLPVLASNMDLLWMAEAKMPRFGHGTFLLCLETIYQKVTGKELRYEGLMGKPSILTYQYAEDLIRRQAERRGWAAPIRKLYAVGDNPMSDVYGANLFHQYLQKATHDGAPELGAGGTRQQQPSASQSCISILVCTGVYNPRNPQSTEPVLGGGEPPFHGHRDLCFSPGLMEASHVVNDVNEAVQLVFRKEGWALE

[3] = molecular target: T3, cysteines in MDA-MB-231 and Ramos cells (Homo sapiens, UniProt Q9NRG0); experiment: as above; format: cell-based; conditions: 200 μM, insitu
T3 sequence (Q9NRG0 1-131): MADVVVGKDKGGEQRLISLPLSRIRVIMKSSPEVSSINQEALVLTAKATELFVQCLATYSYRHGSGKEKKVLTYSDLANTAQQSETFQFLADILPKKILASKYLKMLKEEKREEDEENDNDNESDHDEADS

Row | isoTOP-ABPP ratio Q13418_C346 [1] | isoTOP-ABPP ratio Q9BXW7_C392 [2]; 231 | isoTOP-ABPP ratio Q9NRG0_C55 [3]; 231 | Structure (SMILES) | further results
1 |  |  |  | N#C/C(=C\c1cc(C(F)(F)F)cc(C(F)(F)F)c1)C(N)=O [compound 23] | isoTOP-ABPP ratio (reactivity profile), O94953_C694 (KDM4B C694 (O94953); 500 μm in-vitro ramos): 3.2
2 | 0.6 | 1.3 | 0.9 | CC(C)CCOCCNC(=O)CCl [compound 27] | isoTOP-ABPP ratio (reactivity profile), O94953_C694 (KDM4B C694 (O94953); 500 μm in-vitro ramos_231): 1.4 and 1.0
3 |  | 1.0 |  | COc1ccccc1OCCNC(=O)CCl [compound 28] | 
4 |  |  |  | O=C(CCl)N1CCN(CC(=O)N2CCOCC2)CC1 [compound 29] | isoTOP-ABPP ratio Q9BXW7_C392 ([2]; ramos): 1.5; isoTOP-ABPP ratio Q9NRG0_C55 ([3]; ramos): 1.5; isoTOP-ABPP ratio (reactivity profile), O94953_C694 (KDM4B C694 (O94953); 500 μm in-vitro ramos_231): 1.2
5 | 0.6 |  |  | C=CC(=O)N(Cc1cccnc1)c1cc(C(F)(F)F)cc(C(F)(F)F)c1 [compound 31] | isoTOP-ABPP ratio Q9NRG0_C55 ([3]; ramos): 1.6
6 |  |  |  | O=C(CCl)Nc1ccccc1C1CCCCCC1 [compound 35] | isoTOP-ABPP reactivity ratio, O94953_C694 (KDM4B C694 (O94953); in-vitro_ramos): 1.1
7 |  |  |  | C=CC(=O)N1CCC(c2noc3ccc(F)cc23)CC1 [compound 37] | isoTOP-ABPP reactivity ratio, O94953_C694 (KDM4B C694 (O94953); in-vitro_ramos): 1.1
8 | 1.0 | 0.8 | 1.0 | C=CC(=O)Nc1cc(F)c(N2CCN(C(=O)OC(C)(C)C)CC2)c(F)c1 [compound 38] | isoTOP-ABPP reactivity ratio, O94953_C694 (KDM4B C694 (O94953); in-vitro_ramos): 2.4
9 | 0.6 | 1.0 | 0.9 | Cc1ccc(C=C(C#N)C(=O)NCCN2CCOCC2)cc1 [compound 41] | 
10 |  |  |  | N#CC(=Cc1ccc(-c2ccccc2Cl)o1)C(N)=O [compound 42] | isoTOP-ABPP reactivity profile ratio, O94953_C694 (KDM4B C694 (O94953); in-vitro_ramos): 0.9
11 |  |  |  | COc1cc(NC(=O)CCl)cc(OC)c1 [compound 43] | isoTOP-ABPP reactivity profile ratio, O94953_C694 (KDM4B C694 (O94953); in-vitro_ramos_231): 20.0
12 |  | 4.9 | 20.0 | CC1CCc2ccccc2N1C(=O)CCl (centres unmarked) [compound 45] | 
13 | 0.8 | 1.1 | 1.1 | O=C(CCl)Nc1cccc2ncccc12 [compound 51] | isoTOP-ABPP reactivity profile ratio, O94953_C694 (KDM4B C694 (O94953); in-vitro_ramos): 1.4
14 |  |  |  | O=C(CCl)Nc1ccc(-c2ccccc2)cc1 [compound 52] | isoTOP-ABPP reactivity profile ratio, O94953_C694 (KDM4B C694 (O94953); in-vitro_ramos): 1.4
